According to the kinase profiling compilation of Christmann-Franck et al. (2016):

Columns and labels:
Experiment in all cases: radiometric filter-binding kinase assay, Kinase HotSpot
Settings in all cases: compound 0.5 µM; ATP 10 µM
AXL (human) = AXL (human) (UniProt P30530)
STK39 (human) = STK39 (human) (UniProt Q9UEW8)
ADRBK1 (human) = ADRBK1 (human) (UniProt P25098)
DYRK2 (human) = DYRK2 (human) (UniProt Q92630)
FRK (human) = FRK (human) (UniProt P42685)
LTK (human) = LTK (human) (UniProt P29376)
MAP4K2 (human) = MAP4K2 (human) (UniProt Q12851)
EGFR (human) = EGFR (human) (UniProt P00533)
CDK1 CCNB1 (human) = CDK1 CCNB1 (human) (UniProt P06493+P14635)
DYRK3 (human) = DYRK3 (human) (UniProt O43781)
MARK2 (human) = MARK2 (human) (UniProt Q7KZI7)
PHKG1 (human) = PHKG1 (human) (UniProt Q16816)
STK33 (human) = STK33 (human) (UniProt Q9BYT3)
EPHA7 (human) = EPHA7 (human) (UniProt Q15375)
DAPK3 (human) = DAPK3 (human) (UniProt O43293)
TEK (human) = TEK (human) (UniProt Q02763)
GRK5 (human) = GRK5 (human) (UniProt P34947)
VRK1 (human) = VRK1 (human) (UniProt Q99986)
PRKX (human) = PRKX (human) (UniProt P51817)
GRK7 (human) = GRK7 (human) (UniProt Q8WTQ7)
SRPK2 (human) = SRPK2 (human) (UniProt P78362)
DDR2 (human) = DDR2 (human) (UniProt Q16832)
MAP3K5 (human) = MAP3K5 (human) (UniProt Q99683)
NEK2 (human) = NEK2 (human) (UniProt P51955)
BRSK1 (human) = BRSK1 (human) (UniProt Q8TDC3)
CSNK1G2 (human) = CSNK1G2 (human) (UniProt P78368)
CHEK2 (human) = CHEK2 (human) (UniProt O96017)
SRPK3 (human) = SRPK3 (human) (UniProt Q9UPE1)
MAP3K14 (human) = MAP3K14 (human) (UniProt Q99558)
DYRK4 (human) = DYRK4 (human) (UniProt Q9NR20)
MAP2K1 (human) = MAP2K1 (human) (UniProt Q02750)
EPHA1 (human) = EPHA1 (human) (UniProt P21709)
PRKCD (human) = PRKCD (human) (UniProt Q05655)
CAMKK1 (human) = CAMKK1 (human) (UniProt Q8N5S9)
INSRR (human) = INSRR (human) (UniProt P14616)
PRKCB2 (human) = PRKCB2 (human) (UniProt P05771)
BTK (human) = BTK (human) (UniProt Q06187)
BMX (human) = BMX (human) (UniProt P51813)
PRKCZ (human) = PRKCZ (human) (UniProt Q05513)
TXK (human) = TXK (human) (UniProt P42681)

Sequence of DYRK3 (human) (O43781 whole entry, looked up): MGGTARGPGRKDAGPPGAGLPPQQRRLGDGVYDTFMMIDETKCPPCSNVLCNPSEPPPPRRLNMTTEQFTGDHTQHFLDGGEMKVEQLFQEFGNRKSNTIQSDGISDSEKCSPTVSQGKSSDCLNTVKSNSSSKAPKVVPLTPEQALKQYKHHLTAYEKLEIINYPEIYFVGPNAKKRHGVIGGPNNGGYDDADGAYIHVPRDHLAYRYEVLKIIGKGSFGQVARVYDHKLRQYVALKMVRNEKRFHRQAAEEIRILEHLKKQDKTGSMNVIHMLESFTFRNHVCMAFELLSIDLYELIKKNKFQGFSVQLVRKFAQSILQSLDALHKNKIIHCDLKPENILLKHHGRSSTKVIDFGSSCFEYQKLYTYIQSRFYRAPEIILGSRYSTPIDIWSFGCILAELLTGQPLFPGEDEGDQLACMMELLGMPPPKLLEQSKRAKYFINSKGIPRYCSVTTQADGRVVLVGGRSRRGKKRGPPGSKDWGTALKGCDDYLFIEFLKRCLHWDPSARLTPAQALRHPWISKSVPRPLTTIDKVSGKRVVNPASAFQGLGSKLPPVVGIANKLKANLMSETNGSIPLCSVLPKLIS
Sequence of NEK2 (human) (P51955 whole entry, looked up): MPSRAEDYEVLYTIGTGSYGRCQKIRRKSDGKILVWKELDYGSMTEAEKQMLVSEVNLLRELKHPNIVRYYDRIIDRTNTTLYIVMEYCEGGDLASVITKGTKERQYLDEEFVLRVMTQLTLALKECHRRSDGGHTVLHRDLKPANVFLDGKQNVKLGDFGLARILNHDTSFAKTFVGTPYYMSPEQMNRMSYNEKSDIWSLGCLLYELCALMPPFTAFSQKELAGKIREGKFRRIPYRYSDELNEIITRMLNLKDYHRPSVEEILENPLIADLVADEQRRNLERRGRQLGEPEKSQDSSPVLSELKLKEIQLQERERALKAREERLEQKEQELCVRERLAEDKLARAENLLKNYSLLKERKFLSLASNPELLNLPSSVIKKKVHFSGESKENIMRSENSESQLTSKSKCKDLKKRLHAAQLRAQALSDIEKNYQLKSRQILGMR
Sequence of PRKX (human) (P51817 whole entry, looked up): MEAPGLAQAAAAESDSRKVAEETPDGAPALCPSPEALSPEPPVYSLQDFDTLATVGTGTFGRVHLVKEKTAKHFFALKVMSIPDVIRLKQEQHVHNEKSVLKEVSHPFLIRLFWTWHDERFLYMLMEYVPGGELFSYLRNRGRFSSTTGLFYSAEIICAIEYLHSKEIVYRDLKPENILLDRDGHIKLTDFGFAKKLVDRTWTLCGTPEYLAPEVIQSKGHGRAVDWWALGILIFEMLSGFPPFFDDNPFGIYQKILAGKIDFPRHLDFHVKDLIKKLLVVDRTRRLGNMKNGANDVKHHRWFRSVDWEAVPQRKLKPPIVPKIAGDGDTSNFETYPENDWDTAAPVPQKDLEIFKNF
Sequence of PRKCB2 (human) (P05771 whole entry, looked up): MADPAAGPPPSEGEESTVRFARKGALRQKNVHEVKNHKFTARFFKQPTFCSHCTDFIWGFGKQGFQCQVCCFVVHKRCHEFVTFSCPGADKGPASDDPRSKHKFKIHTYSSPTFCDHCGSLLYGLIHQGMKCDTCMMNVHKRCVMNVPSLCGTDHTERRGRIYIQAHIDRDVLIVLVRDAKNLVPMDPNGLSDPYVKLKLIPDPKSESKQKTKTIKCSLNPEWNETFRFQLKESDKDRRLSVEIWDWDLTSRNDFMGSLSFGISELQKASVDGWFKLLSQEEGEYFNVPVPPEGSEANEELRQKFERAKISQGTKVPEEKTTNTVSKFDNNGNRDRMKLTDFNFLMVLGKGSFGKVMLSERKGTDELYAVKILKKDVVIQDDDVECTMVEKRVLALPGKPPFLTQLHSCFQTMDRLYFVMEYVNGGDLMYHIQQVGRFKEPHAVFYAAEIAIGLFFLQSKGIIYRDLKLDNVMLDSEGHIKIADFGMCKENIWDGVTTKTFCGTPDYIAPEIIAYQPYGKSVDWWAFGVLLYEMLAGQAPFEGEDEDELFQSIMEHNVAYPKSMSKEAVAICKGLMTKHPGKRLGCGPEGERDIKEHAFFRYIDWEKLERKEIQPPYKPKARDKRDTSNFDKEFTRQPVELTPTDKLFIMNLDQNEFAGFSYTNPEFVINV
Sequence of PRKCD (human) (Q05655 whole entry, looked up): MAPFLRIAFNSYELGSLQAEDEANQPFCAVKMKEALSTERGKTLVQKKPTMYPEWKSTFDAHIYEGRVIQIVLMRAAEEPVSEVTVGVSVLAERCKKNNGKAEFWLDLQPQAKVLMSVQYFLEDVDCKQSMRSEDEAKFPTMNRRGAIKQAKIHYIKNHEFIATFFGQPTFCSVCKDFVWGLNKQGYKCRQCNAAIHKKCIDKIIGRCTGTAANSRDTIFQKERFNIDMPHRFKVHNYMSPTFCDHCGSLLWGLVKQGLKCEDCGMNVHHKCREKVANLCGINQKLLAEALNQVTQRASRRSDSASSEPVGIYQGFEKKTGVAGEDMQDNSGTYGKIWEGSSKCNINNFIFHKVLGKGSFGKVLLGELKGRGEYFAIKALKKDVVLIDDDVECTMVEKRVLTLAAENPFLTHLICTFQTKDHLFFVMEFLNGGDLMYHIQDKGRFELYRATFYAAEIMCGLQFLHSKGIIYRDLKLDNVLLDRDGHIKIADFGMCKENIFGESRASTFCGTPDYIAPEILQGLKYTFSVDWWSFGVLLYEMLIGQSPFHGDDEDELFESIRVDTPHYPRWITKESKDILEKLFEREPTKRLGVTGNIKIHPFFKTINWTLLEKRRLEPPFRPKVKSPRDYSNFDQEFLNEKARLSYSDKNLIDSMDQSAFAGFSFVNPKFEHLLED
Sequence of SRPK3 (human) (Q9UPE1 whole entry, looked up): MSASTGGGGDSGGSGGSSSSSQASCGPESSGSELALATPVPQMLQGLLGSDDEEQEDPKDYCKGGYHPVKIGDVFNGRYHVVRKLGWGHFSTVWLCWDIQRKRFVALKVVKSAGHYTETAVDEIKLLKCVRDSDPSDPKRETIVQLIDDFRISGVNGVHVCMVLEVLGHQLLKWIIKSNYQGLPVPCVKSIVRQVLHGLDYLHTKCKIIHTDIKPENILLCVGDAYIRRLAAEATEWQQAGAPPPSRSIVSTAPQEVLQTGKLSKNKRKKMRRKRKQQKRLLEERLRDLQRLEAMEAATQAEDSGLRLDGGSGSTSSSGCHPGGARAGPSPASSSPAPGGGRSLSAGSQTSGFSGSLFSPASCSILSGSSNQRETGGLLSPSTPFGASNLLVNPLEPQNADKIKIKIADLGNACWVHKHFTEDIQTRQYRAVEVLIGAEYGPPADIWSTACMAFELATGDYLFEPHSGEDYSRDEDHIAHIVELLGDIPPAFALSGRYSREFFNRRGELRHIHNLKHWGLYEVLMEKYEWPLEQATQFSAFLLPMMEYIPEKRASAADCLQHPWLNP
Sequence of ADRBK1 (human) (P25098 whole entry, looked up): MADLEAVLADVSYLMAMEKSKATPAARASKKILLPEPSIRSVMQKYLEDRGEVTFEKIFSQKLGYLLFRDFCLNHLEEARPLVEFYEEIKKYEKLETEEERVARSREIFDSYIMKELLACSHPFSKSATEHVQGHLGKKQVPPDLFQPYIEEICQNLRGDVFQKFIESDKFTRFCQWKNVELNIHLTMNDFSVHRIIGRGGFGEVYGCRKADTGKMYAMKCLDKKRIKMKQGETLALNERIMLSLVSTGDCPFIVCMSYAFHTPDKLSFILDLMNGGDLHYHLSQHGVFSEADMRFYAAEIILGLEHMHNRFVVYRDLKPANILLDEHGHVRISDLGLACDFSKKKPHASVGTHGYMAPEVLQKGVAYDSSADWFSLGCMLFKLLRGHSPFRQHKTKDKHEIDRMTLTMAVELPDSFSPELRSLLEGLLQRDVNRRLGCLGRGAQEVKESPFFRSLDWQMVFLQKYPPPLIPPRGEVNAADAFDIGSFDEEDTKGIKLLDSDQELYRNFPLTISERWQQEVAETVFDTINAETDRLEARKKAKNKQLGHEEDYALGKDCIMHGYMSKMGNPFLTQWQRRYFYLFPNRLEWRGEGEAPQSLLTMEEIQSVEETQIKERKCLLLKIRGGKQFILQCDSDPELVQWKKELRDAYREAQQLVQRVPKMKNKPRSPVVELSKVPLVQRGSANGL
Sequence of CSNK1G2 (human) (P78368 whole entry, looked up): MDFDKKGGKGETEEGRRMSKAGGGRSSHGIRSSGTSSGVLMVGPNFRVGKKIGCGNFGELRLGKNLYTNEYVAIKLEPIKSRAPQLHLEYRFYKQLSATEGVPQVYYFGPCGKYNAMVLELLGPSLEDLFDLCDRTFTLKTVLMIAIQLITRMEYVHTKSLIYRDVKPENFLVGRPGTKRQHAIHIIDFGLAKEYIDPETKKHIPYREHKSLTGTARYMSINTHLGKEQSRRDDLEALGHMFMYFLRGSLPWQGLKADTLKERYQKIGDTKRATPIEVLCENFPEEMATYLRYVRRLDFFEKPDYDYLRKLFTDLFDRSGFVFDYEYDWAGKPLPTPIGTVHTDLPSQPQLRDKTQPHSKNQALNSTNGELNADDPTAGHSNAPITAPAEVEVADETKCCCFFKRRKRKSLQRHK
Sequence of CHEK2 (human) (O96017 whole entry, looked up): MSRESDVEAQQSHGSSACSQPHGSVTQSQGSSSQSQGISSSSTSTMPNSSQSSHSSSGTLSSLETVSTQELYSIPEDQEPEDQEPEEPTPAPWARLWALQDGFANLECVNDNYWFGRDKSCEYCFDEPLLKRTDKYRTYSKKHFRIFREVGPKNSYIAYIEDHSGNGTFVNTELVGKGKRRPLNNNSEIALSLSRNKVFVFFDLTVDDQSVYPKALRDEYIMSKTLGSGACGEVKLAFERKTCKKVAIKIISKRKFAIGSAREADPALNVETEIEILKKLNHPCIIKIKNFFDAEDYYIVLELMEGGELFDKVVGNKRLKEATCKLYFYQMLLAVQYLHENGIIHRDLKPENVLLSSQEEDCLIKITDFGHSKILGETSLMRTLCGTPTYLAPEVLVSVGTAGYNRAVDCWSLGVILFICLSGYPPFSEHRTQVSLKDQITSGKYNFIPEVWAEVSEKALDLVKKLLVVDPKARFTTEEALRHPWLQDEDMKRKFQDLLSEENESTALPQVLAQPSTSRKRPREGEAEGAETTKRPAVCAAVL

SMILES | residual activity (STK39 (human)) [%] | residual activity (ADRBK1 (human)) [%] | residual activity (DYRK2 (human)) [%] | residual activity (FRK (human)) [%] | residual activity (LTK (human)) [%] | residual activity (MAP4K2 (human)) [%] | residual activity (EGFR (human)) [%] | residual activity (CDK1 CCNB1 (human)) [%] | residual activity (DYRK3 (human)) [%] | residual activity (MARK2 (human)) [%] | residual activity (PHKG1 (human)) [%] | residual activity (STK33 (human)) [%] | residual activity (EPHA7 (human)) [%] | residual activity (DAPK3 (human)) [%] | residual activity (TEK (human)) [%] | residual activity (GRK5 (human)) [%] | residual activity (VRK1 (human)) [%] | residual activity (PRKX (human)) [%] | residual activity (GRK7 (human)) [%] | residual activity (DDR2 (human)) [%] | further results
Cc1ccc(NC2=CC(=O)c3sc(C)nc3C2=O)cc1 | 93.4 | 96.6 | 109 | 87.9 | 88.8 | 104 | 97.9 | 69.7 | 96.2 | 91.1 | 88.7 | 96.6 | 92.3 | 104 | 95.9 | 106 | 108 | 96.8 | 101 | 95.6 | residual activity (AXL (human)): 97%; residual activity (SRPK2 (human)): 101%; residual activity (MAP3K5 (human)): 119%; residual activity (NEK2 (human)): 96.4%; residual activity (BRSK1 (human)): 88.6%; residual activity (CSNK1G2 (human)): 99.9%; residual activity (CHEK2 (human)): 100%; residual activity (SRPK3 (human)): 98.2%; residual activity (MAP3K14 (human)): 98.2%; residual activity (DYRK4 (human)): 97.9%; residual activity (MAP2K1 (human)): 96.1%; residual activity (EPHA1 (human)): 86.1%; residual activity (PRKCD (human)): 104%; residual activity (CAMKK1 (human)): 108%; residual activity (INSRR (human)): 90%; residual activity (PRKCB2 (human)): 93.8%; residual activity (BTK (human)): 99.2%; residual activity (BMX (human)): 100%; residual activity (PRKCZ (human)): 98.2%; residual activity (TXK (human)): 98.8%
Cc1ccc(S(=O)(=O)/C=C/C#N)cc1 | 83.7 | 102 | 102 | 91.6 | 114 | 130 | 97.5 | 92.3 | 101 | 84 | 95.8 | 87.1 | 99.8 | 97.4 | 101 | 105 | 105 | 102 | 92.6 | 96.4 | residual activity (SRPK2 (human)): 108%; residual activity (MAP3K5 (human)): 100%; residual activity (NEK2 (human)): 101%; residual activity (BRSK1 (human)): 97.2%; residual activity (CSNK1G2 (human)): 98.6%; residual activity (CHEK2 (human)): 107%; residual activity (SRPK3 (human)): 104%; residual activity (MAP3K14 (human)): 103%; residual activity (DYRK4 (human)): 95.1%; residual activity (MAP2K1 (human)): 93.9%; residual activity (EPHA1 (human)): 93.2%; residual activity (PRKCD (human)): 95.6%; residual activity (CAMKK1 (human)): 114%; residual activity (INSRR (human)): 98%; residual activity (PRKCB2 (human)): 104%; residual activity (BTK (human)): 94.4%; residual activity (BMX (human)): 105%; residual activity (PRKCZ (human)): 101%; residual activity (TXK (human)): 103%
COc1ccc2c(c[n+](C)c3c4cc5c(cc4ccc23)OCO5)c1OC | 90.8 | 96.6 | 94.5 | 89.3 | 95.9 | 96.1 | 99.6 | 84.4 | 101 | 95 | 90.4 | 102 | 95.4 | 102 | 97.2 | 110 | 106 | 95.1 | 101 | 96.1 | residual activity (AXL (human)): 98%; residual activity (MAP3K5 (human)): 114%; residual activity (NEK2 (human)): 98.6%; residual activity (BRSK1 (human)): 90.8%; residual activity (CSNK1G2 (human)): 96.8%; residual activity (CHEK2 (human)): 96.5%; residual activity (SRPK3 (human)): 96.1%; residual activity (MAP3K14 (human)): 88.1%; residual activity (DYRK4 (human)): 95.1%; residual activity (MAP2K1 (human)): 97.8%; residual activity (EPHA1 (human)): 98.3%; residual activity (PRKCD (human)): 96.8%; residual activity (CAMKK1 (human)): 101%; residual activity (INSRR (human)): 91.8%; residual activity (PRKCB2 (human)): 100%; residual activity (BTK (human)): 98.6%; residual activity (BMX (human)): 104%; residual activity (PRKCZ (human)): 97.7%; residual activity (TXK (human)): 100%
